Data from US20260274894A1, “CYCLIC POLYPEPTIDE COMPOUND AND USE THEREOF” (BIVISION PHARMACEUTICALS, INC., priority 2023, published 2026).
Like-named read-outs stand apart in the source and are kept apart here. Numbered stars: 1 amine (or outer) side, 2 acyl side, 3 side chain; on linkers, the order of the positions; unused ones are H or OH. Bridge positions count the residues as written; N and C are the ends. Square brackets hold non-standard residues; d marks the D form. Side chains are listed from the residue outwards. Peptide text beside a SMILES is read from it. * marks the point of attachment. ξ: configuration not given here. NH(CH2)2(4-DOTA-piperazinyl) = O=C(O)CN1CCN(CC(=O)O)CCN(CC(=O)N2CCN(CCN*)CC2)CCN(CC(=O)O)CC1; NH(CH2)2O(CH2)2NHDOTA = O=C(O)CN1CCN(CC(=O)O)CCN(CC(=O)NCCOCCN*)CCN(CC(=O)O)CC1; X5 = CCCCCC(=O)N[C@@H](CSCc1cccc(C[*:2])c1)C(=O)N1CCC[C@@H](NC(=O)[*:1])C1; X6 = CCCCCC(=O)N[C@@H](CSCc1cccc(C[*:2])c1)C(=O)C1CCC[C@@H](CC(=O)[*:1])C1; X2 = O=C(O)CN1CCN(CC(=O)O)CCN(CC(=O)N2CCN(CCCN*)CC2)CCN(CC(=O)O)CC1; DOTA = O=C(O)CN1CCN(CC(=O)O)CCN(CC(=O)*)CCN(CC(=O)O)CC1; Azetidine3carboxylic = O=C(C1CN([*:1])C1)[*:2]; mXylylene = c1cc(C[*:1])cc(C[*:2])c1; Cha = N[C@@H](CC1CCCCC1)C(=O)O; Dab = NCC[C@H](N)C(=O)O; ξQ = NC(=O)CCC(N)C(=O)O; Hexanoyl = CCCCCC(=O)*; AEEA = NCCOCCOCC(=O)O; CO = O=C([*:1])[*:2]; Ahx = NCCCCCC(=O)O; ξP = O=C(O)C1CCCN1; GABA = NCCCC(=O)O; ξC = NC(CS)C(=O)O; NHBu = CCCCN*

Legend:
[1] = Determination of C Log P (n-octanol/water partition, gamma counts); assay type: physicochemical
Experimental: Two EP tubes were taken, and 100 μL of saturated n-octanol aqueous solution and 80 µL of pure water were added to each tube, respectively. […] After shaking and mixing for 2 hours, the tubes were centrifuged at room temperature at 2000 rpm/min for 5 minutes. 20 μL was taken from the upper layer (lipid layer) and lower layer (aqueous layer) of each tube, and gamma counts were measured.

HT1080 2 # = experiment: Therapeutic results of ^177Lu-labeled compound in tumor-bearing mice (tumor volume); assay type: in vivo, Balb/c Nude mice
Experimental: The body weight and tumor size were measured.

FAP protein = molecular target: T1, FAP protein (Homo sapiens, UniProt Q12884); experiment: Biacore test of compound affinity to FAP protein; details: Biacore 8K, SA chip, 15° C., 1:1 binding model; for Kd: read-out: pKD (FAP) (converted)
T1 construct: purchased Sinobiological
T1 sequence (Q12884 1-760): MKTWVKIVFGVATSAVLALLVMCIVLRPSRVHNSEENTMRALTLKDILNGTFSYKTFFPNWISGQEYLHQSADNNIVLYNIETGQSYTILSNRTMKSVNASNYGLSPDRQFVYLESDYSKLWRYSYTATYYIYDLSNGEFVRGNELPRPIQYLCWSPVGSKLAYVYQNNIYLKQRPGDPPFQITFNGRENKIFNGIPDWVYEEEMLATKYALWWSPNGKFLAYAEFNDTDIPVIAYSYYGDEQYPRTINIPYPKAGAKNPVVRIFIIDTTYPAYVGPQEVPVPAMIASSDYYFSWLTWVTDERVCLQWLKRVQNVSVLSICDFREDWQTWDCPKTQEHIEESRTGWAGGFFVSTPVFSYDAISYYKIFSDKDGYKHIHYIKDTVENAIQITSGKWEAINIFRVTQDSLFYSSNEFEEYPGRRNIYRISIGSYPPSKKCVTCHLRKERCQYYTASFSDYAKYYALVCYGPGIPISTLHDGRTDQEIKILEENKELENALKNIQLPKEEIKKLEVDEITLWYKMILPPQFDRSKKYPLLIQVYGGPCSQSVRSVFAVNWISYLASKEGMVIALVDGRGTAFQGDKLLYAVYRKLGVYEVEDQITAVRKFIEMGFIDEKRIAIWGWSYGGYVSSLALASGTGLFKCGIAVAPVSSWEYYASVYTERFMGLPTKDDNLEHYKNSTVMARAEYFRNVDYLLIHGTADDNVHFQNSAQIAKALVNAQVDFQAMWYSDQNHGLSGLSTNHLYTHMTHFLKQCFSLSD
Experimental: The Biacore 8K (Cytiva) instrument was used to detect ligand binding of the FAP protein (Sinobiological). FAP protein was captured on the SA chip. […] The sensor surface was conditioned by injecting 1M NaCl three consecutive times in 50 mM NaOH. After each ligand injection, additional cleaning was performed using isopropanol in 1M NaCl and 50 mM NaOH (flow path 1 and 2, flow rate of 10 μL/min, injection time of 60 s). […] The analyte was run under the following conditions: analysis temperature of 15° C., analysis step=all set to LMW kinetics; cycle type=single cycle (contact time of 90 s, dissociation time of 1800 s, flow rate of 30 μL/min, flow channels 1 and 2); channel detection=2-1. Data was evaluated using the Biacore Insight Evaluation Software, and the data were fitted to a 1:1 binding model. The Biacore results are shown in Table 2 below: pKD=−Log KD, where KD is the binding affinity of the compound to the FAP protein as measured by Biacore.

CCCCCC(=O)N[C@H]1CCCCn2cc(nn2)CC(C(=O)N[C@@H](CCCCNC(=O)CN2CCN(CC(=O)O)CCN(CC(=O)O)CCN(CC(=O)O)CC2)C(=O)O)NC(=O)[C@H](Cc2ccccc2)NC(=O)[C@H](CCC(N)=O)NC(=O)[C@H]([C@@H](C)O)NC(=O)C2CCCN2C(=O)N[C@@H]2CCCN(C2)C1=O (single isomer, unassigned) [^177Lu -JHDC11, metal not drawn]
logP [1]: -3.65

CCCCCC(=O)N[C@H]1CCCCn2cc(nn2)CSC[C@@H](C(=O)N[C@@H](CCCCNC(=O)COCCNC(=O)CN2CCN(CC(=O)O)CCN(CC(=O)O)CCN(CC(=O)O)CC2)C(=O)O)NC(=O)[C@H](Cc2ccccc2)NC(=O)[C@H](CCC(N)=O)NC(=O)[C@H]([C@@H](C)O)NC(=O)[C@@H]2CCCN2C(=O)C2CN(C2)C1=O (single isomer, unassigned) [^177Lu -JHDC12, metal not drawn]
logP [1]: -3.81

CCCCNC(=O)N[C@H]1CSCc2cncc(c2)CSC[C@@H](C(=O)N[C@@H](CCC(=O)NCCN2CCN(C(=O)CN3CCN(CC(=O)O)CCN(CC(=O)O)CCN(CC(=O)O)CC3)CC2)C(=O)O)NC(=O)[C@H](CC2CCCCC2)NC(=O)[C@H](CCC(N)=O)NC(=O)[C@H]([C@@H](C)O)NC(=O)[C@@H]2CCCN2C(=O)C2CN(C2)C1=O (single isomer, unassigned) [^177Lu-JHDC46, metal not drawn]
Tumor volume (mm^3) (HT1080 2 #; Day 0): 400.31 ± 78.63 mm^3 | Tumor volume (mm^3) (HT1080 2 #; Day 2): 483.08 ± 95.00 mm^3 | Tumor volume (mm^3) (HT1080 2 #; Day 6): 203.26 ± 49.63 mm^3 | Tumor volume (mm^3) (HT1080 2 #; Day 9): 168.29 ± 33.83 mm^3 | Tumor volume (mm^3) (HT1080 2 #; Day 13): 313.94 ± 119.95 mm^3 | Tumor volume (mm^3) (HT1080 2 #; Day 16): 686.05 ± 297.66 mm^3

CCCCCC(=O)N[C@H]1CSCc2cccc(c2)CSCC(C(=O)N[C@@H](CCC(=O)NCCCN2CCN(C(=O)CN3CCN(CC(=O)O)CCN(CC(=O)O)CCN(CC(=O)O)CC3)CC2)C(=O)O)NC(=O)[C@H](Cc2ccccc2)NC(=O)[C@H](CCC(N)=O)NC(=O)[C@H]([C@@H](C)O)NC(=O)C2CCCN2C(=O)C2CN(C2)C1=O (stereo partly drawn) [JHDC45, Hex-[Cys(3MeBn)-hhy39-Pro-Thr-Gln-Phe-Cys]-Glu-(aminopropylpiperazine-DOTA)-NH2] (Hexanoyl-C[Azetidine3carboxylic][ξP]TQF[ξC]E(X2)-OH; linker 1-7 via mXylylene)
Kd (FAP protein): < 10 nM

CCCCNC(=O)N[C@H]1CSCc2cccc(c2)CSC[C@@H](C(=O)N[C@@H](CCC(=O)NCCN2CCN(C(=O)CN3CCN(CC(=O)O)CCN(CC(=O)O)CCN(CC(=O)O)CC3)CC2)C(=O)O)NC(=O)[C@H](CC2CCCCC2)NC(=O)[C@H](CCC(N)=O)NC(=O)[C@H]([C@@H](C)O)NC(=O)[C@@H]2CCCN2C(=O)C2CN(C2)C1=O [JHDC46, nBu-urea-[Cys(3MePy)-hhy39-Pro-Thr-Gln-hhy34-Cys]-Glu-(aminoethylpiperazine-DOTA)-OH] ({NHBu-CO}-C[Azetidine3carboxylic]PTQ[Cha]CE(NH(CH2)2(4-DOTA-piperazinyl))-OH; linker 1-7 via mXylylene)
pKD (FAP) (FAP protein): B (B: 7<pKD<8)

CCCCNC(=O)N[C@H]1CSCc2cccc(c2)CSC[C@@H](C(=O)N[C@@H](CCC(=O)NCCN2CCN(C(=O)CN3CCN(CC(=O)O)CCN(CC(=O)O)CCN(CC(=O)O)CC3)CC2)C(=O)O)NC(=O)[C@H](Cc2ccccc2)NC(=O)[C@H](CCC(N)=O)NC(=O)[C@H]([C@@H](C)O)NC(=O)C2CCCN2C(=O)C2CN(C2)C1=O (stereo partly drawn) [JHDC50, nBu-urea-[Cys(3MeBn)-hhy39-Pro-Thr-Gln-Phe-Cys]-Glu-(aminoethylpiperazine-DOTA)-OH] ({NHBu-CO}-C[Azetidine3carboxylic][ξP]TQFCE(NH(CH2)2(4-DOTA-piperazinyl))-OH; linker 1-7 via mXylylene)
Kd (FAP protein): 10 to 100 nM

CCCCNC(=O)N[C@H]1CSCc2cccc(c2)CSCC(C(=O)N[C@@H](CCNC(=O)CCCNC(=O)CN2CCN(CC(=O)O)CCN(CC(=O)O)CCN(CC(=O)O)CC2)C(=O)O)NC(=O)[C@H](CC2CCCCC2)NC(=O)[C@H](CCC(N)=O)NC(=O)[C@H]([C@@H](C)O)NC(=O)[C@@H]2CCCN2C(=O)C2CN(C2)C1=O (stereo partly drawn) [JHDC55, nBu-urea-[Cys(3MeBn)-hhy39-Pro-Thr-Gln-hhy34-Cys]-DABA-(ABA-DOTA)-OH] ({NHBu-CO}-C[Azetidine3carboxylic]PTQ[Cha][ξC][Dab]([GABA-DOTA])-OH; linker 1-7 via mXylylene)
Kd (FAP protein): < 10 nM

CCCCCC(=O)N[C@H]1CSCc2cccc(c2)CSC[C@@H](C(=O)N[C@@H](CCC(=O)NCCOCCNC(=O)CN2CCN(CC(=O)O)CCN(CC(=O)O)CCN(CC(=O)O)CC2)C(=O)O)NC(=O)[C@H](Cc2ccccc2)NC(=O)[C@H](CCC(N)=O)NC(=O)[C@H]([C@@H](C)O)NC(=O)[C@@H]2CCCN2C(=O)C2CN(C2)C1=O [^177Lu -JHDC06, metal not drawn] (Hexanoyl-C[Azetidine3carboxylic]PTQFCE(NH(CH2)2O(CH2)2NHDOTA)-OH; linker 1-7 via mXylylene)
logP [1]: -2.69

CCCCCC(=O)N[C@H]1CSCc2cccc(c2)CSC[C@@H](C(=O)N[C@@H](CCCCNC(=O)CCCCCNC(=O)CN2CCN(CC(=O)O)CCN(CC(=O)O)CCN(CC(=O)O)CC2)C(=O)O)NC(=O)[C@H](CC2CCCCC2)NC(=O)C(CCC(N)=O)NC(=O)[C@H]([C@@H](C)O)NC(=O)C2CCCN2C(=O)C[C@@H]2CCCC(C2)C1=O (some centres unmarked) [^177Lu -JHDC13, metal not drawn] ([ξP]T[ξQ][Cha]CK([Ahx-DOTA])-OH; linker N-5 via X6)
logP [1]: -1.3

CCCCCC(=O)N[C@H]1CSCc2cccc(c2)CSC[C@@H](C(=O)N[C@@H](CCCCNC(=O)COCCOCCNC(=O)CN2CCN(CC(=O)O)CCN(CC(=O)O)CCN(CC(=O)O)CC2)C(=O)O)NC(=O)[C@H](CC2CCCCC2)NC(=O)[C@H](CCC(N)=O)NC(=O)[C@H]([C@@H](C)O)NC(=O)[C@@H]2CCCN2C(=O)N[C@@H]2CCCN(C2)C1=O [^177Lu -JHDC14, metal not drawn] (PTQ[Cha]CK([AEEA-DOTA])-OH; linker N-5 via X5)
logP [1]: -1.39

CCCCCC(=O)N[C@H]1CSCc2cccc(c2)CSC[C@@H](C(=O)N[C@@H](CCCCNC(=O)COCCOCCNC(=O)CN2CCN(CC(=O)O)CCN(CC(=O)O)CCN(CC(=O)O)CC2)C(=O)O)NC(=O)CNC(=O)[C@H](CC2CCCCC2)NC(=O)[C@H](CCC(N)=O)NC(=O)[C@H]([C@@H](C)O)NC(=O)C2CCCN2C(=O)N[C@@H]2CCCN(C2)C1=O (some centres unmarked) [^177Lu -JHDC15, metal not drawn] ([ξP]TQ[Cha]GCK([AEEA-DOTA])-OH; linker N-6 via X5)
logP ([1]; read-out: ClogP): -1.6

CCCCCC(=O)N[C@H]1CSCc2cc(CSCCNC(=O)CN3CCN(CC(=O)O)CCN(CC(=O)O)CCN(CC(=O)O)CC3)cc(c2)CSC[C@@H](C(=O)O)NC(=O)[C@H](Cc2ccccc2)NC(=O)[C@H](CCC(N)=O)NC(=O)[C@H]([C@@H](C)O)NC(=O)[C@@H]2CCCN2C(=O)[C@@H]2CCCN2C1=O [^177Lu-FAP-2286, metal not drawn, reference compound]
logP ([1]; read-out: ClogP): -2.74 | Tumor volume (mm^3) (HT1080 2 #; Day 0): 466.80 ± 118.37 mm^3 | Tumor volume (mm^3) (HT1080 2 #; Day 2): 630.23 ± 96.79 mm^3 | Tumor volume (mm^3) (HT1080 2 #; Day 6): 525.29 ± 100.39 mm^3 | Tumor volume (mm^3) (HT1080 2 #; Day 9): 1,041.55 ± 348.07 mm^3 | Tumor volume (mm^3) (HT1080 2 #; Day 13): 2,345.02 ± 298.66 mm^3 | Tumor volume (mm^3) (HT1080 2 #; Day 16): 3,180.37 ± 697.35 mm^3
